Data set [1] in a line: Solubility of drug in menthol melt. It counts as physicochemical. The following applies: for Solubility: in menthol melt. The procedure: Menthol (10 grams) was melted on a stirring hot plate with magnetic stirring, then heated to the desired temperature indicated in Table 1. The desired drug was added in small increments (approximately 0.1 grams) and stirred to obtain a clear solution. The desired drug was added in increments until no more drug dissolved in the menthol.
Menthol (10 grams) was melted on a stirring hot plate with magnetic stirring, then heated to the desired temperature indicated in Table 1. The Azithromycin was added in small increments (0.1 grams) and stirred to obtain a clear solution. The drug was added in increments until no more drug dissolved in the menthol.

Data set [2] has as its system antimicrobial peptide gene expression. The settings on record: Wang et al., J. Immunol. 2004; cited from earlier work.

Structures are written as SMILES.

The text below walks through data of patent US20080057129A1, “Drug microparticles” (priority 2006, published 2008).

The molecule `CC[C@H]1OC(=O)[C@H](C)[C@@H](O[C@H]2C[C@@](C)(OC)[C@@H](O)[C@H](C)O2)[C@H](C)[C@@H](O[C@@H]2O[C@H](C)C[C@H](N(C)C)[C@H]2O)[C@](C)(O)C[C@@H](C)CN(C)[C@H](C)[C@@H](O)[C@]1(C)O` [Azithromycin] displayed a Solubility in data set [1] (63 °C) of 40.0 % w/w.

As to `CC(=O)O[C@@]12CO[C@@H]1C[C@H](O)[C@@]1(C)C(=O)[C@H](O)C3=C(C)[C@@H](OC(=O)[C@H](O)[C@@H](NC(=O)OC(C)(C)C)c4ccccc4)C[C@@](O)([C@@H](OC(=O)c4ccccc4)[C@H]21)C3(C)C` [Docetaxel], in data set [1] (without the additives PEG 6000 and Poloxamer 407), the “solubility in the menthol melt” value is recorded as “soluble”. For the molecule `CCC(C)n1ncn(-c2ccc(N3CCN(c4ccc(OCC5COC(Cn6cncn6)(c6ccc(Cl)cc6Cl)O5)cc4)CC3)cc2)c1=O` (stereo not drawn) [Itraconazole], the solubility in menthol in data set [1] (60° C.) stood at 1%. Besides, the Solubility in data set [1] (61 °C) amounted to 1.0 % w/w. In data set [1] (43 °C), `O=C(O)c1ccccc1O` [Salicylic acid] returned a Solubility of 16.0 % w/w. Take `C=C1/C(=C\C=C2/CCC[C@]3(C)[C@@H]([C@H](C)CCCC(C)(C)O)CC[C@@H]23)C[C@@H](O)C[C@@H]1O` [calcitriol, 1,25-dihydroxyvitamin D3]: in data set [2], the “induction of antimicrobial peptide gene expression” value is on record as “inducer of the antimicrobial peptide gene expression”.
